Results: patent publication US6331565A, “Dicaffeoylquinic acid for treating hepatitis B and the diseases associated with retrovirus, and the new caffeoylquinic acid derivatives” (Institute of Radiation Medicine Academy of Military Medical …, priority 1996, dated 2001)
Entries after “also recorded” stand apart in the source; their conditions may differ. Read-outs that look alike come from different tables or passages of the source.

What was measured:
HIV-1 = assay: microbe, parasite or virus in culture; conditions: Human immunodeficiency virus 1, MT4, in Homo sapiens, 168 h
Description: (§1) A human T-cell leukemia cell line. MT4 cells, was used in this study. It was maintained in RPMI-1640 medium supplemented with 10% FCS. 100 U/ml of penicillin, and 100 μg/ml of streptomycin at 37° C. in a humidified atmosphere of 5% CO2. Cell cultures were split into fresh medium every 4 days.
HIV-1 virus was propagated in MT4 cells. The cell-free supernatants of HIV-1 infected MT4 cell culture were used as virus stocks and frozen at -80° C. until used. The 50% tissue culture infected dose (TCID50) of the cell-free virus stock was determined by end-point titration with MT4 cells in 96-well microdilution plates.
(§2) After 4 h, 100 μl of solvent (10% Triton X-100 and 0.4% HCl isopropanol)was added to cultures to solubilizes formazan. After an overnight incubation, the absorbency of each well was measured using a microplate reader (Bio-Rad, model 450) at 560 nm.
(§3) MT4 cells in culture were counted by trypan blue exclusion method. The MT4 cells suspended in a small volume of RPMI-1640 medium without FCS and infected with HIV-1 at 200 TCID50 viruses per 10^6 cells. The mixture of MT4 cells and virus was subsequently incubated at 37° C. in a humidified atmosphere of 5% CO2 for 1 hr to allow virus to adsorbed to cells. Unabsorbed viruses were then removed by washing one with […] of the fresh medium and centrifuged at 1000 rpm for ten minutes. The cells were suspended in the medium and distributed into 12-well microculture plates (10^6 cells/3 ml/well). […] After 4-day incubation at 37° C. in a humidified atmosphere containing 5% CO2 the medium was aspirated and the fresh medium containing the same concentration of drug was added.
After 7-day incubation the viable cells was evaluated by MTT method as described above.

[1] = Tolerance and general health in ducks; conditions: duck, in vivo; preliminary results; read-out: maximal tolerance dose in duck
HIV-1 RT = system: HIV-1 RT
Description: as §3
The presence of HIV-1 RT in the supernatants of infected, drug-treated and infected, no drug treated MT4 cell culture was assayed. Cell culture fluids was clarified at 1000 rpm for 10 minutes to remove cellular debris. The supernatant samples (20 μl) in duplicate transferred to 5 ml plastic Falcon tubes, 10 μl of virus solubilization buffer [0.5% Triton X-100 in 0.8 M NaCl, 0.5 mM phenylmethysulfonyfluoride, 20% (v/v) glycerol and 50 mM Tris-HCl, pH 7.8] were then added to solubilize the viral particles in the supernatant samples and to release RT located in the viral core. 170 μl of reaction mixture (cocktail I) [52 mM Tris-HCl (pH 7.8), 10 mM MgCl2, 2 mM dithiothreitol, 5 μg of poly(rA)-oligo(dT)per ml. 83 μg of dATP per ml, and 3 μCi of [^3 H]TTP per ml] was then added and incubated at 37° C. for 2 hr. The incorporation of [^3 H]TTP into DNA with poly(rA)-olgio(dT) template primer by viral RT was assessed by trichloroacetic (TCA) precipitation and filtered over a […] diameter glass fiber filter. […] of cold 10% TCA was added to precipitate DNA. The precipitate DNA was then collected on the filters in a Millipore sampling manifold, and was washed with additional 5 volumes of 5% TCA and 2 volumes of 70% ethanol. Radioactivity of the DNA on the filters was determined by a scintillation counter.

[2] = system: lymphocyte proliferation induced by Con A; conditions: mice infected with MuLV
Description: mice. Five-wk-old female C57BL/6 mice were used throughout the experiments. All mice were housed in sterile cages in a room supplied with filtrated air. They were given pelleted food and chlorinated water ad libitum.
Infection with LP-BM5 MuLV. Cell-free supernatants of LP-BM5 MULV were prepared by cocultivating G6 SC-1 clones with normal SC-1 cells for 5 days. Mice were inoculated intraperitoneally with 150 μl of stock solution containing 10^3,4×C plaque-forming units and 10^2,3 Mink-cell focks-forming units per […].
Then, the spleens were collected. Cell suspensions were prepared by repeated passage of whole spleen through a pipette, the capsule and debris were allowed to settle, and the supernatants containing cells were collected and washed twice in PBS. […] Incubation continued for 16 hr, then cells were collected on filter that was determined by a scintillation counter.

MT4 cells = assay: Cytotoxicity in uninfected MT4 cells (MTT); type: cell-based, human; conditions: 1000 μg.ml^-1, MTT
Description: as §1, §2

Hep G2 cell lines = assay: Cytotoxicity in Hep G2 cell lines; type: cell-based; conditions: 1.0 μg.ml^-1
Description: The viability of cells was determined by MTT.

HBV DNA replication = conditions: FIG. 1; 15.625-250 ug/ml
Description: Hep G2 2.2.15 cell lines were maintained in DMEM supplemented with 10% fetal calf serum (FCS) and 100 units.ml^-1 of penicillin and streptomycin, 380 μg.ml^-1 of G418 in a humidified atmosphere containing 5% CO2 at 37° C. The cultures were passenged by trypsinization every 4 days. For bioassays cells were plated in 24-well plates at a density of 1.0×10^5 cells/well. Two-day-old cultures were treated with various concentrations of drug in DMEM containing 10 FCS. The drug was left in the medium for 4 days, and then the medium was aspirated and the fresh medium containing the same concentration of drug was added. At the end of three 4-day periods, the cells were harvested. The aliquot of the culture medium was used for the estimation of the HBV surface antigen (HBsAg) and HBV e antigen (HBeAg).
DNA extraction in 2.2.15 cells: Total DNA was isolated from 2.2.15 cells, cells was washed in PBS and lysed in a solution containing 50 mmol.l^-1 Tris-HCl (pH 7.5). 10 mmol.l^-1 EDTA. 1% SDS and 50 μg.ml^-1 of proteinase K (Sigma). After incubation at 37° C. for 4 h, total DNA was extracted in phenol-chloroform-isoamyl alcohol (25:24:1) followed by two extractions with chloroform-isoamyl alcohol. The DNA was precipitated with 1/10 vol NaOAc and 2.5 vol ethanol overnight at -70° C. […]

With `O=C(/C=C/c1ccc(O)c(O)c1)OC1CC(OC(=O)/C=C/c2ccc(O)c(O)c2)(C(=O)O)CC(O)C1O` (stereo not shown) [Compound A, 1,5-di-O-caffeoylquinic acid] the inhibition at 1.56 µg/mL (HIV-1; read-out: Inhibit rate (%), 1.56 μg/ml, 1000 TCID50 (first column pair), 7 days) was 7.2%, the inhibition at 1.56 µg/mL (HIV-1; read-out: Inhibit rate (%), 1.56 μg/ml, 1000 TCID50 (second column pair), 7 days) was 8.1% and the inhibition at 3.12 µg/mL (HIV-1; read-out: Inhibit rate (%), 3.12 μg/ml, 1000 TCID50 (first column pair), 7 days) was 21.1%. It also gave an inhibition at 3.12 µg/mL (HIV-1; read-out: Inhibit rate (%), 3.12 μg/ml, 1000 TCID50 (second column pair), 7 days) of 19%, an inhibition at 6.25 µg/mL (HIV-1; read-out: Inhibit rate (%), 6.25 μg/ml, 1000 TCID50 (first column pair), 7 days) of 40% and an inhibition at 6.25 µg/mL (HIV-1; read-out: Inhibit rate (%), 6.25 μg/ml, 1000 TCID50 (second column pair), 7 days) of 44.3%. For the same molecule, the inhibition at 12.5 µg/mL (HIV-1; read-out: Inhibit rate (%), 12.5 μg/ml, 1000 TCID50 (first column pair), 7 days) was 55%, the inhibition at 12.5 µg/mL (HIV-1; read-out: Inhibit rate (%), 12.5 μg/ml, 1000 TCID50 (second column pair), 7 days) was 56.5% and the inhibition at 25 µg/mL (HIV-1; read-out: Inhibit rate (%), 25 μg/ml, 1000 TCID50 (first column pair), 7 days) was 69.9%. The inhibition at 25 µg/mL (HIV-1; read-out: Inhibit rate (%), 25 μg/ml, 1000 TCID50 (second column pair), 7 days) was 63.7%, the inhibition at 50 µg/mL (HIV-1; read-out: Inhibit rate (%), 50 μg/ml, 1000 TCID50 (first column pair), 7 days) was 74.8% and the inhibition at 50 µg/mL (HIV-1; read-out: Inhibit rate (%), 50 μg/ml, 1000 TCID50 (second column pair), 7 days) was 60.6%. It also gave an inhibition at 100 µg/mL (HIV-1; read-out: Inhibit rate (%), 100 μg/ml, 1000 TCID50 (first column pair), 7 days) of 61.5%, an inhibition at 100 µg/mL (HIV-1; read-out: Inhibit rate (%), 100 μg/ml, 1000 TCID50 (second column pair), 7 days) of 57.7% and an MTD [1] of over 4000 mg/kg. For the same molecule, the “IC50, RT in MT4 cells infected with HIV” value (HIV-1 RT) was 17.1 µg/mL, the “Inhibitory rate(%)” value (HIV-1 RT; 1 μg/ml) was 22.8 ± 1.9% and the cpm (HIV-1 RT; 1 μg/ml) was 6051 ± 91 cpm. The “Inhibitory rate(%)” value (HIV-1 RT; 10 μg/ml) was 45.4 ± 0.8%, the cpm (HIV-1 RT; 10 μg/ml) was 4283 ± 89 cpm and the “Inhibitory rate(%)” value (HIV-1 RT; 100 μg/ml) was 68.7 ± 0.5%. For the same molecule, the cpm (HIV-1 RT; 100 μg/ml) was 2456 ± 54 cpm, the “Inhibitory rate(%)” value (HIV-1 RT; 1000 μg/ml) was 80.5 ± 1.5% and the cpm (HIV-1 RT; 1000 μg/ml) was 1528 ± 89 cpm. The “proliferation of lymphocyte induced by Con A” value [2] was “enhance the proliferation of lymphocyte induced by Con A in a degree near to that of AZT; also recorded: enhance the proliferation of lymphocyte of mice infected with MuLV”, the “cytotoxicity to MT4 cells” value (MT4 cells) was “markedly cytotoxic” and the “toxicity to Hep G2 cell lines” value (Hep G2 cell lines) was “did not show toxicity”. The “inhibition of HBV DNA replication” value (HBV DNA replication) was “inhibit HBV DNA replication in a dose dependent manner”.
